Read-outs that look alike come from different tables or passages of the source. Marks after values point to notes of the source that are not given here.
Assays:
[1] = test system: SK-MEL-2 cells; assay: Time-course of sesamol cellular uptake (distribution) in SK-MEL-2 cells; assay type: in vitro ADME, human
Protocol: (§1) The cells were used for the following experiments.
(§2) The cells were exposed to 1 mM (200 µL) sesamol and incubated at 37 °C at various times (0.5, 1, 3, 5, 10, and 15 min). The media was plated into 96-well plates prior to measuring the extracellular sesamol content by HPLC analysis. […] The sesamol content in 20 µL of cell lysate was quantified using HPLC assay as described in the analytical procedure.
(§3) The cellular uptake of sesamol was determined based on the sesamol content in cells (nmol/mg protein) to medium (nmol/µL) (expressed as C/M ratio, µL/mg protein). The linear regression of the C/M ratio from 0.5 to 3 min was performed (r^2 > 0.90); to give the initial distribution volume (µL/mg protein) from the y-intercept, and the initial uptake clearance (µL/min/mg protein) from the slope.

[2] = test system: Vero cells; assay: Time-course of sesamol cellular uptake (distribution) in Vero cells; assay type: in vitro ADME, African green monkey
Protocol: as §1, §2, §3

[3] = test system: SK-MEL-2 cells; assay: Uptake kinetics of sesamol at 37 °C and 4 °C in SK-MEL-2 cells; details: for Pd (sesamol passive diffusion) / Vmax (sesamol uptake) / Km: 1 min; for Km: read-out: Km (sesamol uptake)
Protocol: (§4) SK-MEL-2 and Vero cells were seeded separately into 24-well plates at 2 × 10^5 cells/well for 24 h. The media was removed, and the cells pre-incubated with HBSS pH 7.4 for 10 min. The cells were used for the following experiments.
(§5) The cells were pre-incubated with HBSS pH 7.4 at 37 °C and at 4 °C both for 10 min. The cells were treated with sesamol (200 µL; range, 31.5 to 1,000 μM) and incubated under each condition for another 1 min, to exclude the influence of efflux or metabolism processes as per the previous report. The uptake process at 37 °C represented the total uptake of sesamol in the cells, including both carrier-mediated transport and passive transport; whereas the uptake process at 4 °C represented mainly passive transport.
(§6) The uptake kinetics was fitted using Michaelis-Menten kinetics (non-linear least square kinetics model) (r^2 > 0.90) Equation (1) that allowed estimation of Vmax, Km, and Pd values.
(§7) V = (Vmax × [S])/(Km + [S]) + Pd × [S](1)
(§8) V = uptake velocity at a certain amount of substrate (nmol/min/mg protein)
(§9) Vmax = maximum uptake velocity (nmol/min/mg protein)
(§10) [S] = concentration of sesamol at extracellular compartment (µM)
(§11) Km = concentration of sesamol at half of Vmax (µM)
(§12) Pd = passive lipoidal diffusion uptake rate (µL/min/mg protein)
(§13) The rate to reach total uptake clearance of carrier-mediated transport was obtained from the ratio of Vmax to Km (µL/min/mg protein). The total uptake clearance of the process (µL/min/mg protein) was obtained from (Vmax /Km) + Pd.

[4] = test system: Vero cells; assay: Uptake kinetics of sesamol at 37 °C and 4 °C in Vero cells; details: for Pd (sesamol passive diffusion) / Vmax (sesamol uptake): 1 min
Protocol: as §4, §5, §6, §7, §8, §9, §10, §11, §12, §13

[5] = molecular target: T1, LAT1 (Homo sapiens, UniProt Q01650); assay: LAT1 function: competitive uptake of L-dopa in SK-MEL-2 cells; assay type: cell-based; details: SK-MEL-2, L-dopa 0.1 mM, 10 min
Protocol: as §4
(§14) Sesamol was also investigated for its affinity to LAT1. […] Competitive uptake was performed for 10 min then the cells were washed twice with ice-cold PBS. The L-dopa was solubilized by 0.1 M HCl and the cell lysate (25 µL) was pipetted for protein determination. […] Intracellular and extracellular L-dopa was quantified by the HPLC assay. The L-dopa uptake was represented as the distribution volume of L-dopa in a cell to media ratio (C/M ratio) as calculated in Section 4.3.1.
The analysis was based on a BDS Hypersil C-18 column, (4.6 × 250 mm, 5 µm packing, Thermo Fisher Scientific, Waltham, MA, USA). The column temperature was set at 30 °C with a flow rate of 0.8 mL/min. The mobile phase for sesamol quantification was 70% methanol in water, vs. 20% methanol in water for L-dopa. […] The validated sesamol quantification conducted using sesamol spiked cell lysate with high selectivity and clear separation from the endogenous cell lysate as previously reported. The % bias and % precision was determined within and between days, each was maintained below 6%.

[6] = test system: LAT1; assay: LAT1 function: competitive uptake of L-dopa in Vero cells; assay type: cell-based, African green monkey; details: L-dopa 0.1 mM, 10 min
Protocol: as §4, §14
(§15) Quantitative analysis of sesamol and L-dopa were performed using a Shimadzu HPLC (LC-2030C-3D) with a UV photodiode array detector (DAD) (Kyoto, Japan). The analysis was based on a BDS Hypersil C-18 column, (4.6 × 250 mm, 5 µm packing, Thermo Fisher Scientific, Waltham, MA, USA). The column temperature was set at 30 °C with a flow rate of 0.8 mL/min. The mobile phase for sesamol quantification was 70% methanol in water, vs. 20% methanol in water for L-dopa. The respective detection wavelength and elution time for sesamol and L-dopa was 297 nm and 280 nm and 4.2 and 4.5 min. The validated sesamol quantification conducted using sesamol spiked cell lysate with high selectivity and clear separation from the endogenous cell lysate as previously reported. The % bias and % precision was determined within and between days, each was maintained below 6%.

[7] = molecular target: T1, LAT1; assay: cell-based; details: SK-MEL-2; sesamol 0.1 mM, uptake equilibrium 10 min
Protocol: as §4
(§16) Competitive inhibition of uptake of sesamol was done in both SK-MEL-2 and the Vero cells. […] The cells were washed twice with ice-cold PBS, solubilized in methanol, and centrifuged at 2400× g, at 4 °C for 20 min. The precipitated protein was re-solubilized by 0.1 M NaOH prior to protein determination. The sesamol content was quantified using HPLC assay. The cellular uptake of sesamol was calculated as per the C/M ratio.
as §15

[8] = test system: LAT1; details: Vero cells; sesamol 0.1 mM, uptake equilibrium 10 min
Protocol: as §4, §16, §15

[9] = test system: SK-MEL-2 cells; assay: Antiproliferative effect, neutral red uptake assay, SK-MEL-2 cells; assay type: cell-based, human
Protocol: (§17) The SK-MEL-2 and Vero cells (at 5 × 10^4 cells/well) were seeded separately into 96-well plates. After the cells were exposed to the tested compounds (200 µL) for 24 h, neutral red (50 µg/mL) (Sigma-Aldrich, St. Louis, MO, USA) was incorporated into the cells for 2 h. The cells were then washed with ice-cold PBS and lysed using 0.33% HCl in isopropanol. The absorbances of neutral red were measured at 540 nm with a reference wavelength of 660 nm using a UV-microplate reader (Perkin Elmer, Waltham, MA, USA). […] The selective index was calculated from the ratio of the IC50 of Vero and SK-MEL-2 cells.

[10] = test system: Vero cells; assay: Antiproliferative effect, neutral red uptake assay, Vero cells; assay type: cell-based, African green monkey; details: Vero cells, 24 h exposure, neutral red; read-out: IC50 (cell viability)
Protocol: as §17

[11] = stated in the introduction without reference; cited from earlier work
[12] = 1 mM sesamol, 37 °C, linear regression 0.5-3 min
[13] = competitor (BCH, L-tyrosine, sesamol 1 mM; L-leucine, L-alanine 2 mM; melphalan 0.05 mM)
[14] = competitor at the concentration printed in the row

T1 sequence (Q01650 whole entry): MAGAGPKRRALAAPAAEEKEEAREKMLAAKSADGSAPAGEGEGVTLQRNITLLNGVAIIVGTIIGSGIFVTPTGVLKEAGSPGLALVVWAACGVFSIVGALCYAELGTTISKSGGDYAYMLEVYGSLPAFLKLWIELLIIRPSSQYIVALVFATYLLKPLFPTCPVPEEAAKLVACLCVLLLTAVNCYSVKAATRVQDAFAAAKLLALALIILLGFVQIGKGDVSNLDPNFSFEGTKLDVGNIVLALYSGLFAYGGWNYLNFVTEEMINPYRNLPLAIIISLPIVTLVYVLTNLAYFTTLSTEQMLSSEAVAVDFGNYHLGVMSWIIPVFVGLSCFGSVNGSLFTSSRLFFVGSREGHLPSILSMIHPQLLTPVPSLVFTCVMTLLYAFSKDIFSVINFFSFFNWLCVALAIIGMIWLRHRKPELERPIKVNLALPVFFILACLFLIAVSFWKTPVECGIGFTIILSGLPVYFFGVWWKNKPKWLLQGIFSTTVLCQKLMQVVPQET
T1 sequence (P08195 102-630 partner): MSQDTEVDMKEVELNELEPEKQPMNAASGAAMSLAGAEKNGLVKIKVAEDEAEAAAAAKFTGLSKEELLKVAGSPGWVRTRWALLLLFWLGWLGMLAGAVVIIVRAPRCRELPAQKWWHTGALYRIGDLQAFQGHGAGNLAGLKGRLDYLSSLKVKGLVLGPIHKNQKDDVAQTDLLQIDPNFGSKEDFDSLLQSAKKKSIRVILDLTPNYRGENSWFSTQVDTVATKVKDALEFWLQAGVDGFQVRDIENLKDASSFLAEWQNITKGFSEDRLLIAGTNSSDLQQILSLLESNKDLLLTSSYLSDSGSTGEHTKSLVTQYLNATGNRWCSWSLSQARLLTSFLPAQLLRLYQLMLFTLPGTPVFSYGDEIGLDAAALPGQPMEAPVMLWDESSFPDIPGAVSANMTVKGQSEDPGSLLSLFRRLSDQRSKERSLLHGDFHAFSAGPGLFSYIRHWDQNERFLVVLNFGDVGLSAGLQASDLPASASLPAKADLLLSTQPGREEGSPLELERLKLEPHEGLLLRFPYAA

## Oc1ccc2c(c1)OCO2 [Sesamol]
[1]; [12]
  initial distribution volume: 6.0 ± 0.4 µL/mg protein
  initial uptake clearance: 2.6 ± 0.1 µL/min/mg protein
[1]; 30 s
  suppression of sesamol uptake at 4 °C compared to 37 °C: 45%
[1]; 37 °C
  time at which sesamol uptake reached a steady state: approximately 10 min
[1]; 1 min
  suppression of sesamol uptake at 4 °C compared to 37 °C: 61%
[2]; [12]
  initial distribution volume: 5.7 ± 0.4 µL/mg protein
  initial uptake clearance: 1.3 ± 0.2 µL/min/mg protein
[2]; 30 s
  reduction in sesamol distribution volume at 4 °C compared to 37 °C: 33%
[2]; 37 °C
  time at which sesamol uptake reached a steady state: about 5 min
[2]; 1 min
  reduction in sesamol distribution volume at 4 °C compared to 37 °C: 23%
[3]; 37 °C
  carrier-mediated uptake clearance in SK-MEL-2 cells relative to Vero cells: 3.4 fold
[3]; SK-MEL-2, 4 °C
  Pd (sesamol passive diffusion): 2.7 ± 0.1^a µL/min/mg
  Vmax (sesamol uptake): 0.3 ± 0.1^b nmol/min/mg
  Km: 26.8 ± 9.8 µM
[3]; SK-MEL-2, 37 °C
  Pd (passive diffusion of sesamol): 2.3 ± 0.2 µL/min/mg protein
  Vmax (carrier-mediated transport of sesamol): 4.2 ± 0.1 nmol/min/mg protein
  carrier-mediated transport as share of total uptake clearance: 89%
[3]; SK-MEL-2, 37 °C, sesamol alone
  Pd (sesamol passive diffusion): 2.3 ± 0.2^b µL/min/mg
  Vmax (sesamol uptake): 4.2 ± 0.1^a nmol/min/mg
  Km: 225 ± 19.3 µM
[4]; 4 °C
  Pd (sesamol passive diffusion): 2.4 ± 0.3^a µL/min/mg
  Vmax (sesamol uptake): 0.4 ± 0.1^b nmol/min/mg
[4]; 37 °C
  Pd (passive diffusion of sesamol): 2.1 ± 0.1 µL/min/mg protein
  Vmax (carrier-mediated transport of sesamol): 0.9 ± 0.0 nmol/min/mg protein
  carrier-mediated transport as share of total uptake clearance: 72%
[4]; 37 °C, sesamol alone
  Pd (sesamol passive diffusion): 2.1 ± 0.1^a µL/min/mg
  Vmax (sesamol uptake): 0.9 ± 0.0^a nmol/min/mg
[4]; read-out: Km (sesamol uptake), 4 °C, 1 min
  Km: 66.1 ± 20 µM
[4]; read-out: Km (sesamol uptake), 37 °C, sesamol alone, 1 min
  Km: 160 ± 18.4 µM
[5]; [13]
  Percent Inhibition of L-Dopa Distribution Volume: 44%
[5]; [14]
  L-Dopa Distribution Volume in presence of the compound: 207.6 ± 31.5 µL/mg Protein
[6]; [13]
  Percent Inhibition of L-Dopa Distribution Volume: 33%
[6]; [14]
  L-Dopa Distribution Volume in presence of the compound: 103.9 ± 9.2 µL/mg Protein
[7]
  Sesamol Distribution Volume, control (no competitor): 0% (23.2 ± 2.1)^a µL/mg Protein
[8]
  Sesamol Distribution Volume, control (no competitor): 0% (17.9 ± 1.7)^a µL/mg Protein
[9]
  Selective Index: 3.4
[9]; SK-MEL-2, 24 h exposure, neutral red, read-out: IC50 (cell viability)
  IC50: 2 ± 0.1 mM
[10]
  IC50: 6.7 ± 0.2 mM
[11]
  logP: 1.29
